{"source": "patent US11938136B2", "about": "“Compositions for treating spinal muscular atrophy” (Hoffmann-La Roche Inc., priority 2015, dated 2024)", "key": {"[1]": {"tested_on": "SMN protein", "test": "SMN protein in brain and quadriceps muscle of C/C-allele mice (HTRF)", "format": "in vivo, mouse", "experimental": "(A) SMN protein in brains of C/C-allele mice. (B) SMN protein in brains of SMNΔ7 mice. (C) SMN protein in quadriceps muscle of C/C-allele mice. (D) SMN protein in quadriceps muscle of SMNΔ7 mice. C/C-allele mice and SMNΔ7 mice were treated with the compound of Example 20. One hour after the last dose, brains and quadriceps muscles were collected and levels of SMN protein were assessed by HTRF. Data represent means SEM of 5-6 animals per group and are expressed as fold change vs. vehicle-treated controls. *=p<0.05, **=p<0.01, ***=p<0.001 vs. untreated controls.\nIn vivo, the compound of Example 20 increases SMN protein in the brain and muscle in the severe SMNΔ7 model and the milder C/C-allele model, carrying human SMN2 transgenes. Adult C/C-allele mice were treated for 10 days with vehicle or the compound of Example 20 (1, 3 or 10 mg/kg PO, daily), and 3 days old (P3) SMNΔ7 mice were treated for 7 days with vehicle or the compound of Example 20 (0.1, 0.3, 1 or 3 mg/kg IP, daily). […] In SMNΔ7 mice, the SMN protein increase was only partial in both brain and muscle, reaching approximately 43% (brain) and 55% (muscle) of protein levels in heterozygous mice."}, "[2]": {"tested_on": "SMN protein", "test": "SMN protein assay (HTRF) in SMA patient fibroblast cells", "format": "cell-based, human", "conditions": "SMA patient fibroblasts", "excerpt": "The term “EC1.5x concentration for SMN protein expression” (or “EC1.5x SMN protein”) is defined as that concentration of test compound that is effective in producing 1.5 times the amount of SMN protein in an SMA patient fibroblast cell compared to the amount produced from the vehicle control.\n(A) SMN2 splicing in SMA Type 1 fibroblasts. (B) SMN protein in SMA Type 1 fibroblasts. (C) SMN protein in SMA Type 1 motor neurons. (D) SMN1 and SMN2 splicing in whole blood derived from HV. […] SMN splicing was assessed by RT-PCR, and SMN protein levels were assessed by homogenous time-resolved fluorescence (HTRF) in fibroblast lysates, and by immunostaining for SMN in motor neurons. Data represent means standard error (SEM) of 3 evaluations per data point and are expressed as fold change vs. untreated controls.\nThe SMN HTRF (homogeneous time resolved fluorescence) assay is used to quantify the level of SMN protein in SMA patient fibroblast cells treated with test compounds. […]\nCells are thawed and cultured in DMEM-10% FBS for 72 hours. Cells are trypsinized, counted and re-suspended to a concentration of 25,000 cells/mL in DMEM-10% FBS. […] Fluorescence for each well of the plate at 665 nm and 620 nm is measured on an EnVision multilabel plate reader (Perkin-Elmer). […]"}, "[3]": {"tested_on": "SMN1 splicing", "test": "Ex vivo whole blood assay, SMN1 splicing", "format": "cell-based, human", "conditions": "whole blood cells from healthy volunteers, 4 hours", "experimental": "(§1) (A) SMN2 splicing in SMA Type 1 fibroblasts. (B) SMN protein in SMA Type 1 fibroblasts. (C) SMN protein in SMA Type 1 motor neurons. (D) SMN1 and SMN2 splicing in whole blood derived from HV. Fibroblasts from SMA Type 1 patients were cultured for 24 hours (A) or 48 hours (B); motor neurons from SMA Type 1 patient iPSCs (induced Pluripotent Stem Cells) were cultured for 72 hours (C) and whole blood cells from healthy volunteers (HV) for 4 hours (D) in the presence of the compound of Example 20. SMN splicing was assessed by RT-PCR, and SMN protein levels were assessed by homogenous time-resolved fluorescence (HTRF) in fibroblast lysates, and by immunostaining for SMN in motor neurons. Data represent means standard error (SEM) of 3 evaluations per data point and are expressed as fold change vs. untreated controls. To further assess SMN2 splicing as a potential blood biomarker, an ex vivo assay was developed using whole blood cells from healthy volunteers in which SMN1 and SMN2 splicing was assessed after 4 hours treatment with the compound of Example 20 (at this time point, maximal splicing changes were achieved)."}, "[4]": {"tested_on": "human SMN2 pre-mRNA", "test": "SMN2 splicing in SMA Type 1 fibroblasts (RT-PCR)", "format": "cell-based", "conditions": "Fibroblast, 24 hours", "experimental": "as §1, with “controls.” for “controls. To further assess SMN2 splicing as a potential blood biomarker, an ex vivo assay was developed using whole blood cells from healthy volunteers in which SMN1 and SMN2 splicing was assessed after 4 hours treatment with the compound of Example 20 (at this time point, maximal splicing changes were achieved).”\nThe compound of Example 20 is an orally available small molecule SMN2 splicing modifier for the treatment of SMA. It has been found, that the compound of Example 20 effectively corrects the dysfunctional splicing of the human SMN2 pre-mRNA in cultured patient cells (SMA Type 1 fibroblasts) by shifting the balance of the alternative splicing reaction completely towards the inclusion of SMN2 exon 7 and the production of the full-length mRNA (FIG. 1A: EC50 29±8 nM for FL, 12±1 nM for Δ7 mRNA). […] EC1.5× was 4.7±0.7 nM and the maximum induction was 20-fold."}}, "note": "Where two headings read alike, the source gives them in different places."}
{"smiles": "Cc1cn2nc(-c3cc(=O)n4cc(N5CCNC6(CC6)C5)ccc4n3)cc(C)c2n1", "note": "[Example 20, 7-(4,7-diazaspiro[2.5]octan-7-yl)-2-(2,8-dimethylimidazo[1,2-b]pyridazin-6-yl)pyrido[1,2-a]pyrimidin-4-one]", "values": [{"measurement": "SMN levels in muscle compared with heterozygous mice", "setting": "[1]; C/C-allele mice, 10 mg/kg dose", "result": "no different from those in heterozygous mice"}, {"measurement": "maximum increase of SMN protein levels in brain and muscle tissue", "setting": "[1]; adult C/C-allele mice, 10 mg/kg PO daily, 10 days", "result": "2-3 fold"}, {"measurement": "maximal increase in SMN protein above untreated cells", "setting": "[2]", "result": "60-80%"}, {"measurement": "effect on SMN1 splicing", "setting": "[3]", "result": "largely unaffected"}, {"measurement": "EC50", "setting": "[4]; read-out: EC50 for FL SMN2 mRNA", "result": "0.029 ± 0.008", "unit": "µM"}, {"measurement": "EC50", "setting": "[4]; read-out: EC50 for Δ7 SMN2 mRNA", "result": "0.012 ± 0.001", "unit": "µM"}]}
